Measurements reported in patent publication US5114920A, “BU-3292T antibiotics” (priority 1988, dated 1992).
≈ marks a conversion by molar mass, not a printed value. Starred links: 1 amine or outer side, 2 acyl side, 3 side chain; linkers in the order of their positions; H or OH if unused. Positions of bridges follow the written chain, without caps; N, C: chain ends. Non-standard residues stand in square brackets, D forms with d. Residues, ends and D or L forms follow the SMILES beside them. Chains are numbered I, II in the order given. Actinocin(9to1) = Cc1c2oc3c(C)ccc(C(=O)[*:1])c3nc-2c(C(=O)[*:2])c(N)c1=O; X2 = CC1CCC(C(=O)[*:2])N1[*:1]; NMeV = CN[CH](C(=O)O)C(C)C; Sar = CNCC(=O)O

How the values were obtained:
Solubility = format: physicochemical
Source text: BU-3292T A is isolated as a white amorphous powder, while BU-3292T B is an orange-red powder. […] The compounds give positive responses to iodine and Rydone-Smith reagents, but negative responses to Sakaguchi, ferric chloride, ninhydrin and anthrone reagents. […] The IR spectra of BU-3292T A and B are illustrated in FIGS. 1 and 2, respectively.

[1] = test system: Moser (human colorectal carcinoma) cells; experiment: In vitro cytotoxicity, neutral red staining; format: cell-based; details: 72 hours
Experimental: (§1) BU-3292T components A and B were tested for in vitro cytotoxicity against murine and human tumor cells and for in vivo antitumor activity in mice. Actinomycin D was used as a reference compound in both in vitro and in vivo experiments. B16-F10 (murine melanoma) and Moser (human colorectal carcinoma) cells were grown to the logarithmic phase in enriched Eagle minimum essential medium (MEM) supplemented with fetal calf serum (FCS, 10%) and kanamycin (60 mcg/ml), harvested and inoculated into wells of a 96-well microtiter plate with test materials at the concentrations of 3.0×10^4 and 6.0×10^4 cells/ml, respectively. They were incubated at 37° C. in humidified atmosphere of 5% CO2 and 95% air for 72 hours. The cytotoxic activity was determined colorimetrically at 540 nm after staining viable cells with neutral red. […] Inhibitory effects of BU-3292T component A on macromolecule (DNA, RNA and protein) synthesis were determined in vitro. Cultured L1210 murine leukemia cells (5×10^5 cells/ml) were incubated with test materials at 37° C. for 15 minutes and then further incubated for 60 minutes after the addition of labelled precursor, ^3 H-thymidine, ^14 C-uridine or ^3 H-leucine, into the cultured mixtures. After washing with chilled 5% trichloroacetic acid solution, the radioactivity incorporated into the acid-insoluble fraction of the tumor cells was determined in a liquid scintillation counter. […] In vivo antitumor activities of BU-3292T components A and B were tested in tumor-bearing female CDF mice. After the intraperitoneal implantation of diluted ascitic fluid with 1.0 ×10^6 lymphocytic leukemia P388 cells into the mice, test compounds were administered intraperitoneally once a day on days 1, 2 and 3 (QD×3).

[2] = test system: B16-F10 (murine melanoma) cells; experiment: In vitro cytotoxicity, neutral red staining; format: cell-based
Experimental: as §1

gram-negative bacteria = experiment: Antimicrobial activity, agar dilution, summary in words; format: cell-based; details: summary of Table 6
Experimental: (§2) The antimicrobial activity of BU-3292T A and B was determined against aerobic and anaerobic bacteria and fungi by a serial two-fold agar dilution method. BU-3292T A and B are active against aerobic gram-positive bacteria, and weakly active against anaerobic gram-negative bacteria and fungi.

[3] = test system: anaerobic gram-negative bacteria and fungi; experiment: as above; format: cell-based; details: summary of Table 6
Experimental: as §2

[4] = test system: aerobic gram-positive bacteria; experiment: as above; format: cell-based; details: summary of Table 6
Experimental: as §2

[5] = test system: Clostridium perfringens A9635; format: cell-based; details: GAM agar
[6] = Body weight change in P388-bearing mice; details: QD × 3, ip
Experimental: as §1

[7] = test system: lymphocytic leukemia P388; experiment: Antitumor activity against P388 leukemia (ip); format: in vivo, mice; details: for MST (Median survival time) / T/C: QD × 3, ip
Experimental: as §1

Micrococcus luteus 1001 = experiment: Antimicrobial activity, serial two-fold agar dilution method; format: cell-based; details: Nutrient agar
Experimental: as §2

[8] = test system: Trichophyton mentagrophytes D155; experiment: as above; format: cell-based; details: Sabouraud dextrose agar
Experimental: as §2

[9] = test system: Propionibacterium acnes A21933; experiment: as above; format: cell-based; details: GAM agar
Experimental: as §2

[10] = test system: Bacteroides fragilis A22693; experiment: as above; format: cell-based; details: GAM agar
Experimental: as §2

[11] = test system: Propionibacterium anaerobius A21905; experiment: as above; format: cell-based; details: GAM agar
Experimental: as §2

Mucor spinosus IFO 5317 = experiment: as above; format: cell-based
Experimental: as §2

[12] = test system: Staphylococcus aureus smith; experiment: as above; format: cell-based; details: Nutrient agar
Experimental: as §2

Proteus vulgalis A9436 = experiment: as above; format: cell-based; details: Nutrient agar
Experimental: as §2

[13] = test system: Staphylococcus epidermidis D153; experiment: as above; format: cell-based; details: Nutrient agar
Experimental: as §2

[14] = test system: Cryptococcus neoformans IAM 4519; experiment: as above; format: cell-based; details: Sabouraud dextrose agar
Experimental: as §2

[15] = test system: Staphylococcus aureus 209P; experiment: as above; format: cell-based; details: Nutrient agar
Experimental: as §2

[16] = test system: Aspergillus fumigatus IAM 2530; experiment: as above; format: cell-based; details: Sabouraud dextrose agar
Experimental: as §2

[17] = test system: Klebsiella pneumoniae D11; experiment: as above; format: cell-based; details: Nutrient agar
Experimental: as §2

[18] = test system: Clostridium difficile A21675; experiment: as above; format: cell-based; details: GAM agar
Experimental: as §2

[19] = test system: Fusarium moniliforme A2284; experiment: as above; format: cell-based; details: Sabouraud dextrose agar
Experimental: as §2

[20] = test system: Pseudomonas aeruginosa A9930; experiment: as above; format: cell-based; details: Nutrient agar
Experimental: as §2

Escherichia coli NIHJ = experiment: as above; format: cell-based; details: Nutrient agar
Experimental: as §2

[21] = test system: Streptococcus pyogenes A20201; experiment: as above; format: cell-based; details: Nutrient agar
Experimental: as §2

[22] = test system: Bacillus subtilis PCI-219; experiment: as above; format: cell-based; details: Nutrient agar
Experimental: as §2

[23] = test system: Candida albicans IAM 4888; experiment: as above; format: cell-based; details: Sabouraud dextrose agar
Experimental: as §2

Proteus mirabilis A9554 = experiment: as above; format: cell-based; details: Nutrient agar
Experimental: as §2

[24] = test system: Streptococcus faecalis A9612; experiment: as above; format: cell-based; details: Nutrient agar
Experimental: as §2

**Q.** What does the source list for `Cc1c2oc3c(C)ccc(C(=O)NC4C(=O)NC(C(C)C)C(=O)N5C(C)CCC5C(=O)N(C)CC(=O)N(C)C(C(C)C)C(=O)OC4C)c3nc-2c(C(=O)NC2C(=O)NC(C(C)C)C(=O)N3C(C)CCC3C(=O)N(C)CC(=O)N(C)C(C(C)C)C(=O)OC2C)c(N)c1=O` (centres unmarked) [BU-3292T B] (I: TV[X2][Sar][NMeV] / II: TV[X2][Sar][NMeV]; ester I:1-I:C, II:1-II:C; linker I:N-II:N via Actinocin(9to1); configuration not given here)?
**A.** solubility in dimethyl sulfoxide, dimethylformamide, methanol, ethyl acetate and chloroform (Solubility; dimethyl sulfoxide, dimethylformamide, methanol, ethyl acetate, chloroform): readily soluble; solubility in water and other organic solvents (Solubility; water and other organic solvents): insoluble; IC50 [1]: 0.06 µg/mL (≈ 0.0467 µM); IC50 ([2]; B16-F10, 72 hours): < 0.00016 µg/mL; times stronger against B16-F10 cells than against Moser cells ([2]; cytotoxic activity, B16-F10 versus Moser): ~400 times; activity against gram-negative bacteria (gram-negative bacteria): inactive; activity against anaerobic gram-negative bacteria and fungi [3]: weakly active; activity against aerobic gram-positive bacteria [4]: active; MIC [5]: 25 µg/mL (≈ 19.5 µM); Body weight change on day 4 ([6]; 0.003 mg/kg/day): +1.0 g; Body weight change on day 4 ([6]; 0.01 mg/kg/day): +1.0 g; Body weight change on day 4 ([6]; 0.03 mg/kg/day): +1.0 g; Body weight change on day 4 ([6]; 0.1 mg/kg/day): -1.0 g; Body weight change on day 4 ([6]; 0.3 mg/kg/day): -3.3 g; MST (Median survival time) ([7]; 0.003 mg/kg/day): 11.0 days; T/C ([7]; 0.003 mg/kg/day): 110%; MST (Median survival time) ([7]; 0.01 mg/kg/day): 12.0 days; T/C ([7]; 0.01 mg/kg/day): 120%; MST (Median survival time) ([7]; 0.03 mg/kg/day): 14.0 days; T/C ([7]; 0.03 mg/kg/day): 140%; MST (Median survival time) ([7]; 0.1 mg/kg/day): 16.0 days; T/C ([7]; 0.1 mg/kg/day): 160%; MST (Median survival time) ([7]; 0.3 mg/kg/day): 8.0 days; T/C ([7]; 0.3 mg/kg/day): 80%; MST (Median survival time) ([7]; 1 mg/kg/day): Tox; T/C ([7]; 1 mg/kg/day): Tox; maximum T/C value ([7]; anti-P388 leukemic activity, QD×3, ip): 160%; MIC (Micrococcus luteus 1001): 0.4 µg/mL (≈ 0.312 µM); MIC [8]: > 100 µg/mL; MIC [9]: 12.5 µg/mL (≈ 9.74 µM); MIC [10]: > 100 µg/mL; MIC [11]: 6.3 µg/mL (≈ 4.91 µM); MIC (Mucor spinosus IFO 5317; Mucor spinosus IFO 5317, Sabouraud dextrose agar): 25 µg/mL (≈ 19.5 µM); MIC (Mucor spinosus IFO 5317; in vitro against Mucor spinosus IF05317): 25 µg/mL (≈ 19.5 µM); MIC [12]: 1.6 µg/mL (≈ 1.25 µM); MIC (Proteus vulgalis A9436): > 100 µg/mL; MIC [13]: 1.6 µg/mL (≈ 1.25 µM); MIC [14]: > 100 µg/mL; MIC [15]: 1.6 µg/mL (≈ 1.25 µM); MIC [16]: > 100 µg/mL; MIC [17]: 100 µg/mL (≈ 77.9 µM); MIC [18]: > 100 µg/mL; MIC [19]: 50 µg/mL (≈ 39 µM); MIC [20]: > 100 µg/mL; MIC (Escherichia coli NIHJ): > 100 µg/mL; MIC [21]: 0.8 µg/mL (≈ 0.623 µM); MIC [22]: 0.8 µg/mL (≈ 0.623 µM); MIC [23]: > 100 µg/mL; MIC (Proteus mirabilis A9554): > 100 µg/mL; MIC [24]: 0.8 µg/mL (≈ 0.623 µM)
